Test results: patent publication US9540343B2 (Gilead Sciences, Inc., priority 2011, dated 2017)

Experiments:
in vitro = conditions: human, uninfected MT-4 cells, CC50 (nM), same protocol as Test A, CellTiter-Glo
Summary of the method: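 Cytoprotection read-out: CellTiter-Glo chemiluminescence after 5 days at 37 °C of HIV-IIIb-infected MT-4 cells (m.o.i. 0.003) with compound in 10-point 3-fold dilutions, quadruplicate, 10% FBS. Cytotoxicity (CC50) measured identically without virus.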

HIV-IIIb = assay: Test A: Antiviral assay in MT4 cells; assay type: cell-based, HIV-1; conditions: MT-4 cells infected with HIV-IIIb, 5 days, CellTiter-Glo; for inhibition at 2 µM: Human immunodeficiency virus 1, IIIB, MT4, 120 h, read-out: % inhibition at 2 μM, percent inhibition of virus-induced cell killing, from dose response curve at 2 uM drug

Compound	CC50 at 5 days (in vitro) [nM]	inhibition at 2 µM (HIV-IIIb) [%]	% inhibition at 2 μM (HIV-IIIb; percent inhibition of virus-induced cell killing, from dose response curve at 2 uM drug) [%]
NC(=O)c1cc(-c2cccnc2[C@H](Cc2cc(F)cc(F)c2)NC(=O)C2CCCN2Cc2ccccc2)ccc1F (stereo partly drawn) [Example 166, 1-benzyl-N—((S)-1-(3-(3-carbamoyl-4-fluorophenyl)pyridin-2-yl)-2-(3,5-difluorophenyl)ethyl)pyrrolidine-2-carboxamide]	6360	0	–
NC(=O)c1cc(-c2cccnc2[C@H](Cc2cc(F)cc(F)c2)NC(=O)[C@@H]2CC(=O)CN2)ccc1F [Example 167, (S)—N—((S)-1-(3-(3-carbamoyl-4-fluorophenyl)pyridin-2-yl)-2-(3,5-difluorophenyl)ethyl)-4-oxopyrrolidine-2-carboxamide]	> 53000	0	–
NC(=O)c1cc(-c2cccnc2[C@H](Cc2cc(F)cc(F)c2)NC(=O)Cn2nc(C(F)(F)F)cc2C2CCCC2)ccc1F [Example 168B, (S)-5-(2-(1-(2-(5-cyclopentyl-3-(trifluoromethyl)-1H-pyrazol-1-yl)acetamido)-2-(3,5-difluorophenyl)ethyl)pyridin-3-yl)-2-fluorobenzamide]	11100	21	–
CCn1c(=O)c2c(n1CC(=O)N[C@@H](Cc1cc(F)cc(F)c1)c1ncccc1-c1ccc(F)c(C(N)=O)c1)CCCC2 [Example 170C, (S)-5-(2-(2-(3,5-difluorophenyl)-1-(2-(2-ethyl-3-oxo-2,3,4,5,6,7-hexahydro-1H-indazol-1-yl)acetamido)ethyl)pyridin-3-yl)-2-fluorobenzamide]	> 53200	22	–
CC(C)(C)OC(=O)N1CCC[C@H]1C(=O)N[C@@H](Cc1cc(F)cc(F)c1)c1ncccc1-c1ccc(F)c(C(N)=O)c1 [Example 171, (S)-tert-butyl 2-((S)-1-(3-(3-carbamoyl-4-fluorophenyl)pyridin-2-yl)-2-(3,5-difluorophenyl)ethylcarbamoyl)pyrrolidine-1-carboxylate]	11900	4	–
O=C(Cn1nc(C(F)F)c2c1C(F)(F)C1CC21)N[C@@H](Cc1cc(F)cc(F)c1)c1ncncc1-c1cnc2[nH]ccc2c1 (stereo partly drawn) [Example 172D, N—((S)-1-(5-(1H-pyrrolo[2,3-b]pyridin-5-yl)pyrimidin-4-yl)-2-(3,5-difluorophenyl)ethyl)-2-(3-(difluoromethyl)-5,5-difluoro-3b,4,4a,5-tetrahydro-1H-cyclopropa[3,4]cyclopenta[1,2-c]pyrazol-1-yl)acetamide]	22100	104	–
NC(=O)c1cc(-c2cccnc2[C@H](Cc2cc(F)cc(F)c2)NC(=O)[C@@H]2CCCN2)ccc1F [Example 175, (S)—N—((S)-1-(3-(3-carbamoyl-4-fluorophenyl)pyridin-2-yl)-2-(3,5-difluorophenyl)ethyl)pyrrolidine-2-carboxamide]	> 53000	1	–
O=C(Cn1nc(C(F)F)c2c1C(F)(F)C1CC21)N[C@@H](Cc1cc(F)cc(F)c1)c1ncncc1-c1cnc2[nH]ncc2c1 (stereo partly drawn) [Example 176C, N—((S)-1-(5-(1H-pyrazolo[3,4-b]pyridin-5-yl)pyrimidin-4-yl)-2-(3,5-difluorophenyl)ethyl)-2-(3-(difluoromethyl)-5,5-difluoro-3b,4,4a,5-tetrahydro-1H-cyclopropa[3,4]cyclopenta[1,2-c]pyrazol-1-yl)acetamide]	46500	59	–
NC(=O)c1cc(-c2cccnc2[C@H](Cc2cc(F)cc(F)c2)NC(=O)[C@@H]2C[C@H](c3ccccc3)CN2)ccc1F [Example 177, (2S,4R)—N—((S)-1-(3-(3-carbamoyl-4-fluorophenyl)pyridin-2-yl)-2-(3,5-difluorophenyl)ethyl)-4-phenylpyrrolidine-2-carboxamide]	51700	0	–
NC(=O)c1cc(-c2cccnc2[C@H](Cc2cc(F)cc(F)c2)NC(=O)[C@@H]2C[C@@H](O)CN2)ccc1F [Example 178, (2S,4R)—N—((S)-1-(3-(3-carbamoyl-4-fluorophenyl)pyridin-2-yl)-2-(3,5-difluorophenyl)ethyl)-4-hydroxypyrrolidine-2-carboxamide]	> 53000	0	–
CCOc1nn(CC(=O)N[C@@H](Cc2cc(F)cc(F)c2)c2ncccc2-c2ccc(F)c(C(N)=O)c2)c2c1CCCC2 [Example 179C, (S)-5-(2-(2-(3,5-difluorophenyl)-1-(2-(3-ethoxy-4,5,6,7-tetrahydro-1H-indazol-1-yl)acetamido)ethyl)pyridin-3-yl)-2-fluorobenzamide]	22300	52	–
NC(=O)c1cc(-c2cncnc2[C@H](Cc2cc(F)cc(F)c2)NC(=O)Cn2nc(C(F)F)c3c2C(F)(F)C2CC32)ccc1F (stereo partly drawn) [Example 180, 5-(4-((1S)-1-(2-(3-(difluoromethyl)-5,5-difluoro-3b,4,4a,5-tetrahydro-1H-cyclopropa[3,4]cyclopenta[1,2-c]pyrazol-1-yl)acetamido)-2-(3,5-difluorophenyl)ethyl)pyrimidin-5-yl)-2-fluorobenzamide]	> 50400	93	–
NC(=O)c1cc(-c2cccnc2[C@H](Cc2cc(F)cc(F)c2)NC(=O)[C@@H]2CC[C@H](c3ccccc3)N2)ccc1F [Example 182, (2S,5R)—N—((S)-1-(3-(3-carbamoyl-4-fluorophenyl)pyridin-2-yl)-2-(3,5-difluorophenyl)ethyl)-5-phenylpyrrolidine-2-carboxamide]	51000	8	–
NC(=O)c1cc(-c2cccnc2[C@H](Cc2cc(F)cc(F)c2)NC(=O)[C@H]2CC[C@@H](c3ccccc3)N2)ccc1F [Example 183, (2R,5S)—N—((S)-1-(3-(3-carbamoyl-4-fluorophenyl)pyridin-2-yl)-2-(3,5-difluorophenyl)ethyl)-5-phenylpyrrolidine-2-carboxamide]	35200	0	–
Cc1[nH]nc(-c2ccccc2)c1CC(=O)N[C@@H](Cc1cc(F)cc(F)c1)c1ncccc1-c1ccc(F)c(C(N)=O)c1 [Example 184, (S)-5-(2-(2-(3,5-difluorophenyl)-1-(2-(5-methyl-3-phenyl-1H-pyrazol-4-yl)acetamido)ethyl)pyridin-3-yl)-2-fluorobenzamide]	43200	5	–
O=C(Cn1nc(C(F)F)c2c1C(F)(F)C1CC21)N[C@@H](Cc1cc(F)cc(F)c1)c1ncncc1-c1cccc2cnccc12 (stereo partly drawn) [Example 185C, 2-(3-(difluoromethyl)-5,5-difluoro-3b,4,4a,5-tetrahydro-1H-cyclopropa[3,4]cyclopenta[1,2-c]pyrazol-1-yl)-N—((S)-2-(3,5-difluorophenyl)-1-(5-(isoquinolin-5-yl)pyrimidin-4-yl)ethyl)acetamide]	26500	94	–
NC(=O)c1cc(-c2cccnc2[C@H](Cc2cc(F)cc(F)c2)NC(=O)[C@H]2COCCN2)ccc1F [Example 188, (R)—N—((S)-1-(3-(3-carbamoyl-4-fluorophenyl)pyridin-2-yl)-2-(3,5-difluorophenyl)ethyl)morpholine-3-carboxamide]	> 53000	0	–
NC(=O)c1cc(-c2cccnc2[C@H](Cc2cc(F)cc(F)c2)NC(=O)Cn2nc(C(F)(F)F)c3c2CSC3)ccc1F [Example 189D, (S)-5-(2-(2-(3,5-difluorophenyl)-1-(2-(3-(trifluoromethyl)-4,6-dihydro-1H-thieno[3,4-c]pyrazol-1-yl)acetamido)ethyl)pyridin-3-yl)-2-fluorobenzamide]	23300	48	–
NC(=O)c1cccc(-c2cccnc2[C@H](Cc2cc(F)cc(F)c2)NC(=O)CC2C(=O)Nc3ccccc32)c1 (stereo partly drawn) [Example 191, 3-(2-((1S)-2-(3,5-difluorophenyl)-1-(2-(2-oxoindolin-3-yl)acetamido)ethyl)pyridin-3-yl)benzamide]	> 50900	–	19
Cc1ccc2c(c1)C(CC(=O)N[C@@H](Cc1cc(F)cc(F)c1)c1ncccc1-c1ccc(F)c(C(N)=O)c1)C(=O)N2 (stereo partly drawn) [Example 193, 5-(2-((1S)-2-(3,5-difluorophenyl)-1-(2-(5-methyl-2-oxoindolin-3-yl)acetamido)ethyl)pyridin-3-yl)-2-fluorobenzamide]	> 53200	2	–
NC(=O)c1cc(-c2cccnc2[C@H](Cc2cc(F)cc(F)c2)NC(=O)Cn2nc(C(F)(F)F)c3c2CS(=O)(=O)C3)ccc1F [Example 194, (S)-5-(2-(2-(3,5-difluorophenyl)-1-(2-(5,5-dioxido-3-(trifluoromethyl)-4,6-dihydro-1H-thieno[3,4-c]pyrazol-1-yl)acetamido)ethyl)pyridin-3-yl)-2-fluorobenzamide]	> 53200	11	–
COCc1ccc(-c2cccnc2[C@H](Cc2cc(F)cc(F)c2)NC(=O)Cn2nc(C(F)F)c3c2C(F)(F)C2CC32)cc1 (stereo partly drawn) [Example 195, 2-(3-(difluoromethyl)-5,5-difluoro-3b,4,4a,5-tetrahydro-1H-cyclopropa[3,4]cyclopenta[1,2-c]pyrazol-1-yl)-N—((S)-2-(3,5-difluorophenyl)-1-(3-(4-(methoxymethyl)phenyl)pyridin-2-yl)ethyl)acetamide]	23000	85	–
NC(=O)c1cccc(-c2cccnc2[C@H](Cc2cc(F)cc(F)c2)NC(=O)CC2C(=O)Nc3ccc(F)cc32)c1 (stereo partly drawn) [Example 196, 3-(2-((1S)-2-(3,5-difluorophenyl)-1-(2-(5-fluoro-2-oxoindolin-3-yl)acetamido)ethyl)pyridin-3-yl)benzamide]	29600	2	–
